# Measured values published in US20040142888A1, “Modulators of RabGGT and methods of use thereof” (priority 2002, published 2004).
# Test system: HCT116 cells
# Assay: 3H-thymidine incorporation (proliferation) assay in HCT116 cells after siRNA treatment against RabGGT subunits
# Type: cell-based, human
# Set-up: concentration or dose not given beside the values
# Details: 72 hours after siRNA/Lipofectamine 2000 treatment, average of three replicates
# Procedure: HCT-116 human colon tumor cells obtained from the ATCC were grown in RPMI culture medium supplemented with 10% heat inactivated FBS, 1× penicillin/streptomycin, and 25 mM HEPES, in an incubator maintained at 37° C. with CO2 at 6% and humidity at 95%. HCT116 cells were plated in 96 well plates at 2000 cells/100 μl media per well and incubated for 24 hours before RNAi treatment. For treatment, a 2× solution of Lipofectamine 2000/siRNA complexes was generated for each individual siRNA as follows. The siRNA oligonucleotides (Xeragon; Huntsville Ala.) were diluted to a final concentration of 1 μM in Optimem serum-free media (Invitrogen; Carlsbad, Calif.) and incubated for 5 minutes at room temperature. The Lipofectamine 2000 reagent (Invitrogen; Carlsbad, Calif.) was diluted to 10 μg/ml in Optimem serum-free media and incubated for 5 minutes at room temperature. Equal volumes of the 1 μM siRNA oligonucleotides and the 10 μg/ml Lipofectamine 2000 were mixed together, giving a 5× stock of siRNA/Lipofectamine 2000 complexes. After incubation for 20 minutes at room temperature, 1.5 volumes of RPMI medium containing 10% heat inactivated FBS was added to the 5× stock, resulting in a 2× stock of siRNA/Lipofectamine 2000 complexes. For RNAi treatment, 100 μof the 2× stock of siRNA/Lipofectamine 2000 complexes was added to each well containing HCT116 cells, to give a final concentration of 1× siRNA/Lipofectamine 2000 complexes. Cells were incubated for 72 hours prior to the proliferation assay. Three replicates were performed for each siRNA treatment.
# The effect of RNAi treatment directed against RabGGT subunits on cellular proliferation was assayed using a 3H-thymidine incorporation assay. The principle of this assay is as follows: During S-phase of the cell cycle, cells incorporate thymidine into the new strand of genomic DNA. Tritiated thymidine can be added to the culture medium and will be incorporated into genomic DNA in proportion to the number of rounds of DNA synthesis that occur. Incorporation can be quantified following lysis of the cells and removal of unincorporated nucleotides. RNAi-treated cells prepared as described above were assayed for 3H-thymidine uptake as follows. The cells were pulsed with 3H-thymidine by addition of 20 μl of a 44 μCi/ml solution of 3H-thymidine in RPMI to each well, to obtain a final concentration of 3H-thymidine of 4 μCi/ml. After incubation for 3 h at 37° C., the medium was removed and 50 μl of 0.25% trypsin in phosphate buffered saline (140 mM NaCl, 2.7 mM KCl, 10 mM Na2HPO4 and 1.8 mM KH2PO4, pH 7.4) was added. After 10 minutes, the contents of the wells were harvested onto a 96-well GF/C filter plate (Whatman; Clifton N.J.) using a Hewlett Packard Filtermate. The filter plate was washed 10 times with distilled water, then left to dry overnight. After the addition of 50 μl of Microscint-20 scintillation fluid (Perkin Elmer; Boston, Mass.) per well, the filter plates were sealed and the amount of radioactivity retained on the filter was determined by scintillation counting. The average of the three replicate samples is reported.
row,Substance,3H-thy incorp. % of control [%]
1,"Beta-2: siRNA against human RabGGT-beta, coding bases 662-685, SEQ ID NO:09 / NO:10 (chain 1 CGACAAUUACCCUCAGGCGTT; chain 2 CGCCUGAGGGUAAUUGUCGTT; chemistry not given here)",39
2,"Beta-3: siRNA against human RabGGT-beta, coding bases 812-835, SEQ ID NO:11 / NO:12 (chain 1 GAUGAAGAAACGGGGGGAUTT; chain 2 AUCCCCCCGUUUCUUCAUCTT; chemistry not given here)",36
3,"Alpha-1: siRNA against human RabGGT-alpha, coding bases 268-291, SEQ ID NO:01 / NO:02 (chain 1 GGCAGAACUGGGCUUCCUGTT; chain 2 CAGGAAGCCCAGUUCUGCCTT; chemistry not given here)",33
4,"Alpha-3: siRNA against human RabGGT-alpha, coding bases 1309-1332, SEQ ID NO:05 / NO:06 (chain 1 GAUGGAGUAUGCCGAGGUGTT; chain 2 CACCUCGGCAUACUCCAUCTT; chemistry not given here)",63
5,"Beta-1: siRNA against human RabGGT-beta, coding bases 493-516, SEQ ID NO:07 / NO:08 (chain 1 CUUUGGCUUUGUUGGGGAATT; chain 2 UUCCCCAACAAAGCCAAAGTT; chemistry not given here)",77
6,"Alpha-2: siRNA against human RabGGT-alpha, coding bases 628-651, SEQ ID NO:03 / NO:04 (chain 1 AGAGCUGGAGCUGGUGCAGTT; chain 2 CUGCACCAGCUCCAGCUCUTT; chemistry not given here)",17
